One data set deals with T1, human recombinant HDAC1 (Homo sapiens, UniProt Q13547).
T1 construct: purchased Enzo Life Sciences, Inc
Kind of data set: HDAC1 inhibition, fluorometric method (Enzo Fluorometric Drug Discovery Assay Kit). Type of data set: biochemical. As to conditions: read-out: Inhibitory activity IC50 on HDAC1. As to the method:
The inhibitory activities of the synthesized compounds were determined against CK2 and HDAC1 and the IC50 values are collected in Table 1. The activity towards human recombinant HDAC1 was tested using a fluorometric method. CK2 inhibitory activity was determined by a radiometric method, using a short peptide ([…]) as a substrate.
(§1) 15 µL of HDAC1 (0.4 µg/well) or HDAC6 (0.5 µg/well) were incubated at 37 °C for 30 minutes with 10 µL of inhibitor diluted in 5% DMSO and 25 µL of fluorogenic substrate (0.05 µL/well of 5 mM solution). Reactions were stopped with the developer and trichostatin A, diluted in buffer without BSA, and the plate was incubated at 30 °C for 45 min, followed by measuring the fluorescence (Ex. 360 nm, Em. 450 nm, Fluoroskan, Thermo Scientific).

A further data set has as its target T2, HDAC6 (Homo sapiens, UniProt Q9UBN7).
T2 construct: purchased Enzo Life Sciences, Inc
T2 sequence (Q9UBN7 1-1215): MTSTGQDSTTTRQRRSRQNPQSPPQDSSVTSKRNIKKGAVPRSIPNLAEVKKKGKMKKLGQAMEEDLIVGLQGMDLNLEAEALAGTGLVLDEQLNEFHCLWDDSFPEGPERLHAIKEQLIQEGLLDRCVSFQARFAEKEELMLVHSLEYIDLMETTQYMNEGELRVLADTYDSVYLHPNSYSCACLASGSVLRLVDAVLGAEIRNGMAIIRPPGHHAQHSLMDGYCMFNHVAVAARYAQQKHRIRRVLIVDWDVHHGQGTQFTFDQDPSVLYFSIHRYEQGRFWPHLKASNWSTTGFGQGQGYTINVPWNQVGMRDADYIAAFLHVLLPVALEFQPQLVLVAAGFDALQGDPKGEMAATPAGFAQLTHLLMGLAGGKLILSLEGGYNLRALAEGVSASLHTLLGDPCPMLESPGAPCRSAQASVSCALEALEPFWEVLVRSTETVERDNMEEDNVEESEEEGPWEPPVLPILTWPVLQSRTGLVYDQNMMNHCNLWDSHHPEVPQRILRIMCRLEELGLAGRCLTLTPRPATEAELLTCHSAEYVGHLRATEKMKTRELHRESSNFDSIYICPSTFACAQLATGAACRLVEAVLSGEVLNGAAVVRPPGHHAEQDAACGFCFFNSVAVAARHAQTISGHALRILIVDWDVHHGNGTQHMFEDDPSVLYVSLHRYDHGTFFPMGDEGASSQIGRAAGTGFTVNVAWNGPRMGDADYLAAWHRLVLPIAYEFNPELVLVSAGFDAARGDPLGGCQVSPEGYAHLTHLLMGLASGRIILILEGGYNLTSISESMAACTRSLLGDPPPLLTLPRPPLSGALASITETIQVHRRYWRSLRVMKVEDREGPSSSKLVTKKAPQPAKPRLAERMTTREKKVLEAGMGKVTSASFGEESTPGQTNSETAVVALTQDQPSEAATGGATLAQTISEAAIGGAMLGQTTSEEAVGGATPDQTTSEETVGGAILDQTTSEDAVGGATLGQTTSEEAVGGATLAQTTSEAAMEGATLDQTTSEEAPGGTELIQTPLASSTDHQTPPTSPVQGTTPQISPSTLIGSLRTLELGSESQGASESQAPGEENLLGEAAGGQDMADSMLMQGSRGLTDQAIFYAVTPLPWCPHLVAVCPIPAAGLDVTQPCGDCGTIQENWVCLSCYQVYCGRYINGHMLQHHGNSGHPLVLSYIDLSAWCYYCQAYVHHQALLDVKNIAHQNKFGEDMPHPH
In words: HDAC6 inhibition, fluorometric method (Enzo Fluorometric Drug Discovery Assay Kit). The class given is biochemical. As to conditions: read-out: Inhibitory activity IC50 on HDAC6. As for the experimental part: For this reason, we analyzed the activity of 15 and 19, together with other compounds from the alkyl and triazole series in HDAC6, tested using a fluorometric method (Table 1).
as §1

In data set [1] the test system is Jurkat T-leukemia cells. Kind of data set: Cell cycle analysis, PI staining, FACS. The class given is cell-based, human. The note with it: 30 µM, 24 h. As to the method:
To reveal potential mechanisms of cell death induction, selected CK2-HDAC inhibitors were tested in a PI staining assay. […] However, this effect was masked for high doses of DMAT-hydroxamate derivatives (30 µM) due to their strong proapoptotic activity, leading to appearance of > 80% cells in pre-G1 phase (apoptotic). Thus, lower concentrations of 11b–d (2 µM and 5 µM) had to be addressed in order to observe their inhibitory effect on cell cycling. […] As G1/S cell arrest is considered a typical feature of HDAC inhibitors, including SAHA [79], the observed phenomenon is yet another confirmation of HDAC targeting by these novel dual inhibitors in cell culture.
Cell cycle of the analyzed cells was assessed according to protocol described by Walker et al.. After drug treatment, 2 × 10^6 cells were collected, pelleted by spinning at 1,000 rpm, 4 °C for five minutes, resuspended in 1 mL of cold PBS and fixed by adding drop by drop 4 mL of −20 °C absolute ethanol. On the next day, fixed cells were centrifuged again and cell pellets were resuspended in 1 mL of PBS. Then 100 µL of 200 µg/mL DNase-free, RNase A (Invitrogen, USA) was added to cell suspension and incubated at 37 °C for 30 minutes. After this 100 µL of 1 mg/mL propidium iodide was added to samples, which were incubated at room temperature for 5–10 min and then analyzed on FACScan flow cytometer (Becton Dickinson, USA). Cell cycle analysis was carried out using the Cytomation Summit Software v3.1 (Cytomation Inc., USA).

The subject of data set [2] is Jurkat T-leukemia cells. Kind of data set: Cytotoxicity, trypan blue exclusion assay, 24 h. The note with it: Homo sapiens.
Protocol: (§2) Walter Berger, Institute of Cancer Research, Vienna Medical University. Human embryonal kidney cells of HEK293 line were obtained from cell culture collection of R.E. Kavetsky Institute of Experimental Pathology, Oncology and Radiobiology, National Academy of Sciences of Ukraine (Kyiv, Ukraine).
(§3) Cells were seeded (5 × 10^5/mL for leukemia cells and 1 × 10^5/mL for carcinoma cells) into 24-well tissue culture plates (Greiner Bio-one, Frickenhausen, Germany) and were permitted to adhere and grow for 24 h before the experiment. Short-term (24 h) cytotoxic effect of antitumor drugs was studied under the Evolution 300 Trino microscope (Delta Optical, Nowe Osiny, Poland) after cell staining with trypan blue dye (0.1%).
(§4) Final concentration of DMSO in cell culture was 0.5% or less.
(§5) All experiments were performed in triplicate and repeated three times. Statistical analysis of data was conducted in GraphPad Prism 7.0 Software (GraphPad Software, Inc.) using Student’s t test. Statistical significance was set at P ≤ 0.05. Evaluation of LC50 values of each compound was done by built-in functions of GraphPad Prism (non-linear regression, curve fit, [Inhibitor] vs. normalized response - Variable slope).
Data set [3] concerns breast adenocarcinoma cells of MCF-7 line. In words: Cytotoxicity, trypan blue exclusion assay, 24 h. As to conditions: Homo sapiens.
Protocol: as §2, §3, §4, §5
Data set [4] has as its system HCT-116 colon carcinoma cells. Kind of data set: Cytotoxicity, trypan blue exclusion assay, 24 h. As to conditions: Homo sapiens.
Protocol: as §2, §3, §4, §5
The nature of data set [5]: Cytotoxicity, trypan blue exclusion assay, 24 h (pseudonormal cells). As to conditions: human, HEK293 embryonic kidney cells (pseudonormal).
Protocol: as §2, §3, §4, §5
The mark [6] stands for this setting: 24 h, read-out: LC50 Values of Compounds for Cell Line, Jurkat.
[7] abbreviates: read-out: LC50 values of compounds for cell line, Jurkat.
[8] abbreviates: MCF7, 24 h, read-out: LC50 Values of Compounds for Cell Line, MCF-7.
The mark [9] stands for this setting: HCT-116, 24 h, read-out: LC50 Values of Compounds for Cell Line, HCT-116.
[10] abbreviates: LC50 Values of Compounds for Cell Line, HEK293, Table 2, trypan blue, 24 h, M ± SD.
[11] abbreviates: LC50 values of compounds for cell line, HEK293, supplement Table 4S, M±SD.

Like-named read-outs stand apart in the source and are kept apart here. A value given as a limit tells only on which side of the number the result lay.

T1 sequence (Q13547 whole entry): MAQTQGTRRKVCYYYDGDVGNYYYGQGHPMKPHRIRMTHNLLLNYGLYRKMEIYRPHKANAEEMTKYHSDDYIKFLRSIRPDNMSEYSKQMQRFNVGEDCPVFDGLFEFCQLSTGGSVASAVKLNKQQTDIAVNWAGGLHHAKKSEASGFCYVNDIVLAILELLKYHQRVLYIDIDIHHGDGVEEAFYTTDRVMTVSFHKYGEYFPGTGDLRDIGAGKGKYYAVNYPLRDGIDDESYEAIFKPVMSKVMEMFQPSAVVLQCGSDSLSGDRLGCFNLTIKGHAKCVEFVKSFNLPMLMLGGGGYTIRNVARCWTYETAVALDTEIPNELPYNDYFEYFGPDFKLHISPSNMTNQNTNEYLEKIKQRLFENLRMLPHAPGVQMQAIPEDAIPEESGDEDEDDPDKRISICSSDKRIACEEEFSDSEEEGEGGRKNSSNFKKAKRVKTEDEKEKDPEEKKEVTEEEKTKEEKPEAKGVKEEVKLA

On to `CN(C)c1nc2c(Br)c(Br)c(Br)c(Br)c2n1CCc1cn(CCC(=O)NO)nn1` [Compound 7c, N-Hydroxy-3-(4-(2-(4,5,6,7-tetrabromo-2-(dimethylamino)-1H-benzo[d]imidazol-1-yl)ethyl)-1H-1,2,3-triazol-1-yl)propanamide], for which the IC50 (in general, the concentration at which inhibition is half-maximal) was 13.3 µM on human recombinant HDAC1 and 30.7 µM on HDAC6. Further, the “cells in pre-G1 phase (apoptotic)” value in the data set on Jurkat T-leukemia cells [1] was “increased insignificantly”. Also, the CC50 came to 16.5 ± 2.33 µM in the data set with Jurkat T-leukemia cells [2] (setting [6]); 10.7 µM in the data set on Jurkat T-leukemia cells [2] (setting [7]); 27.8 ± 6.06 µM in data set [3] (setting [8]); 15.7 µM in data set [3] (MCF7, read-out: LC50 values of compounds for cell line, MCF-7); 16.9 ± 3.9 µM in data set [4] (setting [9]); 4.22 µM in data set [4] (HCT-116, read-out: LC50 values of compounds for cell line, HCT-116). The CC50 at 24 h in data set [5] (setting [10]) came to 42.7 ± 8.65 µM; in data set [5] (setting [11]), 23.3 µM.
As to `CN(C)c1nc2c(Br)c(Br)c(Br)c(Br)c2n1Cc1ccc(C(=O)NO)cc1` [Compound 19, N-Hydroxy-4-((4,5,6,7-tetrabromo-2-(dimethylamino)-1H-benzo[d]imidazol-1-yl)methyl)benzamide], the IC50 at human recombinant HDAC1 came to 9.45 µM; at HDAC6, 20.6 µM. Further, the “cells in pre-G1 phase (apoptotic)” value in the data set with Jurkat T-leukemia cells [1] was “increased insignificantly”. Further, the CC50 in the data set on Jurkat T-leukemia cells [2] (setting [6]) worked out at 24.9 ± 3.8 µM; in the data set with Jurkat T-leukemia cells [2] (setting [7]), 21.8 µM; in data set [3] (setting [8]) it was 13.6 ± 0.78 µM; in data set [4] (setting [9]), 11.3 ± 1.01 µM. The CC50 at 24 h in data set [5] (setting [10]) was 33.4 ± 11.8 µM; in data set [5] (setting [11]), 24.5 µM.
Take `O=C(NO)c1ccc(Cn2nc3c(Br)c(Br)c(Br)c(Br)c3n2)cc1` [Compound 15a, N-Hydroxy-4-((tetrabromo-2H-benzo[d][1,2,3]triazol-2-yl)methyl)benzamide]: the IC50 came to 8.5 µM on human recombinant HDAC1 and 11 µM on HDAC6. The “cells in pre-G1 phase (apoptotic)” value in the data set with Jurkat T-leukemia cells [1] was “increased insignificantly”. Besides, the CC50 in the data set on Jurkat T-leukemia cells [2] (setting [6]) was 43.6 ± 16.7 µM; in the data set with Jurkat T-leukemia cells [2] (setting [7]) it was over 30 µM; in data set [3] (setting [8]), 13.7 ± 2.67 µM; in data set [4] (setting [9]), 8.67 ± 1.02 µM. Besides, the CC50 at 24 h in data set [5] (setting [10]) is 33.7 ± 7.52 µM; in data set [5] (setting [11]), over 30 µM.
